Measured values reported in PMC6286779, “HLA-A2-Restricted Epitopes Identified from MTA1 Could Elicit Antigen-Specific Cytotoxic T Lymphocyte Response” (Journal of Immunology Research, 2018).

Columns and labels:
HLA-A*0201 molecules = HLA-A*0201 molecules (Homo sapiens, UniProt P04439, D140Y/D185E/D98H/E176V/E277Q/G131W/G231S/I119V/I121R/I166T/I218V/L300P/L318F/N151K/N90K/P208A/P217A/Q86G/Q94H/R138H/R169H/T345S); assay: T2 binding assay; conditions: T2 cells 1 × 10^6 cells/ml, peptide 50 μg/ml, 3 μg/ml β2-M, serum-free RPMI 1640, 18 h, 37°C; BB7.2 staining, flow cytometry; FI > 1.5 = high affinity
Description: The binding affinity of these peptides to HLA-A^∗0201 was evaluated according to our previous study. Briefly, T2 cells (1 × 10^6 cells/ml) were incubated with each peptide (50 μg/ml) and 3 μg/ml human β2-microglobulin (β2-M, Merck, Germany) in serum-free RPMI 1640 medium for 18 h at 37°C in a humidified atmosphere of 5% CO2. Then cells were washed twice and incubated with the anti-human HLA-A2 PE-Cyanine7 mAb, BB7.2 (eBioscience, USA) for 0.5 h at 4°C. Finally, cells were collected, washed, and analyzed using flow cytometry (FACSCalibur, Becton Dickinson, USA). The fluorescence index (FI) calculation was performed as follows: FI = [(mean fluorescence intensity (MFI) of the given peptide − background) − (MFI of the PBS control group − background)]/[(MFI of the PBS control group − background)]. The MFI value of cells untreated with peptides and antibodies was employed as background. Peptides with an FI factor of more than 1.5 were classed as high-affinity candidates.

[1] = system: PBMCs from HLA-A*02+ healthy donors; assay: IFN-γ ELISPOT of CTLs induced in vitro; format: cell-based, human; conditions: PBMCs of six donors stimulated with peptide 10 μg/ml three times, day 21; stimulators peptide-pulsed T2 cells (50 μg/ml); 1 × 10^5 effectors; mean, n = 6
Description: (§1) CTL induction in vitro was conducted according to the procedures previously described. Briefly, PBMCs from eight HLA-A^∗02^+ healthy donors were isolated using Ficoll-Paque density gradient centrifugation and resuspended in RPMI 1640 medium supplemented with 10% FBS. Then, PBMCs were stimulated three times (once a week) with the indicated peptides (10 μg/ml) or protein MTA1(1–283) (at final concentrations of 0, 1, 10, 30, and 50 μg/ml) for 21 days. Human recombinant cytokine interleukin-2 (IL-2) (50 U/ml) was added on day 3 and 1 day after each stimulation. The cytotoxic assay (lactate dehydrogenase (LDH) assay) and IFN-γ secretion enzyme-linked immunospot (ELISPOT) assay were performed on day 21.
The ELISPOT assay was performed using a commercial kit (Dakewe, China) according to the procedures previously described. Briefly, T2 cells incubated with/without candidate peptide (50 μg/ml) were used as the stimulating cells, effector cells (1 × 10^5) and stimulator cells (peptide-pulsed T2 cells or T2 cells only, 1 × 10^5) were seeded into the 96-well plate precoated with an anti-human (or anti-mouse) IFN-γ antibody. After incubation at 37°C for 18 h, cells were removed, and plates were processed for analysis as instructed. The spot number was determined automatically using a computer-assisted spot analyzer (Dakewe, China).

HT-29 (HLA-A2−, MTA1+) = assay: LDH cytotoxicity assay, CTLs induced in vitro; format: cell-based, human; conditions: peptide-induced CTLs, HLA-A2-negative control target
Description: as §1
(§2) Cytotoxic activity of induced T cells was tested based on the quantitation of LDH release using the nonradioactive cytotoxicity assay kit (Promega, USA) at the gradient E/T ratio [29, 31]. Target cells which expressed different levels of MTA1 or peptide-pulsed T2 cells were used as target cells. The anti-human HLA-A2 antibody (BB7.2) was added 30 min before adding effector cells to determine the HLA restriction. Target cells (5 × 10^3/well) were cocultured with the effector cells at 37°C for 4 h. The percentage of specific lysis of the target cells was determined using the equation: percentage of specific lysis = [(experimental release − effector spontaneous release − target spontaneous release)/(target maximum release − target spontaneous release)] × 100.

MCF-7 (HLA-A2+, MTA1+) = assay: LDH cytotoxicity assay, CTLs induced in vitro; format: cell-based, human; conditions: peptide-induced CTLs from healthy donors, E/T 50 : 1
Description: as §1, §2

[2] = system: MDA-MB-231 (HLA-A2+, MTA1+); assay: LDH cytotoxicity assay, CTLs induced in vitro; format: cell-based, human; conditions: CTLs induced by peptide 10 μg/ml from donor no. 6; E/T 50 : 1; LDH release, 4 h; n = 3
Description: as §1, §2

SW620 (HLA-A2+, MTA1+) = assay: LDH cytotoxicity assay, CTLs induced in vitro; format: cell-based, human; conditions: CTLs induced by peptide 10 μg/ml from donor no. 6; E/T 50 : 1; LDH release, 4 h; n = 3
Description: as §1, §2

[3] = system: SW620 incubated with an anti-human HLA-A2 antibody; assay: LDH cytotoxicity assay, CTLs induced in vitro, HLA-A2 blocked; format: cell-based; conditions: peptide-induced CTLs, BB7.2 added 30 min before effectors
Description: as §1, §2

[4] = system: SW620 cells (HLA-A2+, MTA1+); assay: LDH cytotoxicity assay, CTLs induced in HLA-A2.1/Kb transgenic mice; format: in vivo, human; conditions: HLA-A2.1/Kb transgenic mice, 100 μg peptide + 140 μg T helper epitope in IFA s.c. days 0, 5, 10; splenocytes restimulated 6 days; E/T 50 : 1; n = 5
Description: (§3) In vivo induction of peptide-specific CTLs was performed as previously described. Briefly, peptide (100 μg) and the IA^b-restricted HBV-core128 T helper epitope (140 μg) emulsified in incomplete Freund's adjuvant (IFA) were used to subcutaneously immunize at the base of the tail of HLA-A2.1/K^b transgenic mice three times on days 0, 5, and 10. On day 11, all mice were sacrificed through cervical dislocation. Spleen lymphocytes were isolated and restimulated once with 10 μg/ml peptide and 10 U/ml mIL-2 in vitro for an additional 6 days. LDH and IFN-γ ELISPOT assays were performed on day 6 after in vitro stimulation. […]
To test the effects of protein, each HLA-A2.1/K^b transgenic mouse was injected subcutaneously at the base of the tail with 100 μg MTA1(1–283) or the same volume of PBS emulsified in IFA twice on days 0 and 7. On day 14, spleen lymphocytes were harvested and stimulated by peptide pool (10 μg/ml) in vitro for another 6 days. LDH, IFN-γ ELISPOT, and IFN-γ intracellular cytokine staining assays were performed on day 6 after the in vitro stimulation. E/T ratios used in the LDH assay were 12.5 : 1, 25 : 1, and 50 : 1.
as §2

[5] = system: T2 cells pulsed with each peptide; assay: as above; format: in vivo, human; conditions: 100 μg peptide + 140 μg T helper epitope in IFA s.c. days 0, 5, 10, splenocytes restimulated 6 days, E/T 50 : 1, n = 5
Description: as §3, §2

Row | FI (fluorescence index) (HLA-A*0201 molecules) | Sequence | IFN-γ ELISPOT mean spot intensities [1] | lysis of HT-29 cells (HT-29 (HLA-A2−, MTA1+)) | rate of MCF-7 cell lysis (MCF-7 (HLA-A2+, MTA1+)) | lysis rate of MDA-MB-231 cells [2] | lysis rate of SW620 cells (SW620 (HLA-A2+, MTA1+)) | lysis of SW620 cells incubated with an HLA-A2 blocking antibody [3] | lysis rate of SW620 cells, CTLs induced in vivo [4] | lysis rate of peptide-pulsed T2 target cells, CTLs induced in vivo [5]
1 | 2.08 | YLIRRIEEL [Peptide P22] | 566 | did not lyse | 16.0% | 24.8% | 71.4% | did not lyse | 37.29% | 22.43%
2 | 1.28 | TLLNETESL [Peptide P129] | 411 | did not lyse | 9.34% | 14.1% | 38.4% | did not lyse | 51.81% | 31.6%
